Measured values reported in patent publication US20240109918A1, “HETEROCYCLIC COMPOUNDS AND USES THEREOF” (Kumquat Biosciences Inc., priority 2022, published 2024).
pIC50: −log10 of the molar value.

Assays:
KRASwt = target: T1, KRASwt (Homo sapiens, UniProt P01116); experiment: Bio-Biochem-PPI-HTRF Ras-SOS1 interaction assay (KRAS wt); format: biochemical; conditions: 5 nM
T1 construct: made in house; host or cells: E. coli BL21 (DE3)
Procedure, shortened: (§1)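 HTRF measurement of GST-K-Ras (wt or G12D) binding to His-hSOS1, via anti-GST-Eu(K) donor and anti-6His-XL665 acceptor, in HEPES pH 7.4 buffer with NaCl, DTT, BSA and Igepal. Read after ≥10 min; compounds in duplicate from 10 μM down to 0.01 μM. IC50 from 665/620 nm ratio.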

KRASG12D = target: T2, KRASG12D (Homo sapiens, UniProt P01116, G12D); experiment: Bio-Biochem-PPI-HTRF Ras-SOS1 interaction assay (KRAS G12D); format: biochemical; conditions: 5 nM
T2 construct: made in house; host or cells: E. coli BL21 (DE3)
Procedure, shortened: as §1

T2 sequence (P01116 1-188 isoform P01116-2 G12D): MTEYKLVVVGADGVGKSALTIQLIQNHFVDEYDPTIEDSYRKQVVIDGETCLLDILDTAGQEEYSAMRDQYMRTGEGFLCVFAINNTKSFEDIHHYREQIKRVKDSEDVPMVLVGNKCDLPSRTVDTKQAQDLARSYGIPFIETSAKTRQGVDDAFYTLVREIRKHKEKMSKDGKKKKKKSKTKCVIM
T1 sequence (P01116 1-188 isoform P01116-2): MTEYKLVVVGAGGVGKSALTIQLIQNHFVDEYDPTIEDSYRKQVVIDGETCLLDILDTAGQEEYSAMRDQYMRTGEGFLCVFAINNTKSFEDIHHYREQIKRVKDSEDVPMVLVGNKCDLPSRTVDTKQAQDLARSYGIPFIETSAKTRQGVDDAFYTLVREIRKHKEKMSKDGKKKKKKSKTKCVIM

| pIC50 (KRASwt) | pIC50 (KRASG12D) | Compound |
| --- | --- | --- |
| > 5.30 | > 5.30 | CC(=O)N1CC2(CCCCN(c3nc(OC[C@@]45CCCN4C[C@H](F)C5)nc4c(F)c(-c5ccc(F)c6sc(N)c(C#N)c56)c(Cl)cc34)C2)C1 [compound 338, 4-(4-(2-acetyl-2,6-diazaspiro [3.6]decan-6-yl)-6-chloro-8-fluoro-2-(((2R,7aS)-2-fluorotetrahydro-1H-pyrrolizin-7a(5H)-yl)methoxy)quinazolin-7-yl)-2-amino-7-fluorobenzo[b]thiophene-3-carbonitrile] |
| > 5.30 | > 5.30 | N#Cc1c(N)sc2c(F)ccc(-c3c(Cl)cc4c(N5CCCCC6(CN(C=O)C6)C5)nc(OC[C@@]56CCCN5C[C@H](F)C6)nc4c3F)c12 [compound 271, 2-amino-4-(6-chloro-8-fluoro-2-(((2R,7aS)-2-fluorotetrahydro-1H-pyrrolizin-7a(5H)-yl)methoxy)-4-(2-formyl-2,6-diazaspiro[3.6]decan-6-yl)quinazolin-7-yl)-7-fluorobenzo[b]thiophene-3-carbonitrile] |
| > 5.30 | > 5.30 | N#Cc1c(N)sc2c(F)ccc(-c3c(Cl)cc4c(N5CCCCC6(CN(C(=O)N7CC(F)C7)C6)C5)nc(OC[C@@]56CCCN5C[C@H](F)C6)nc4c3F)c12 [compound 250, 2-amino-4-(6-chloro-8-fluoro-4-(2-(3-fluoroazetidine-1-carbonyl)-2,6-diazaspiro[3.6]decan-6-yl)-2-(((2R,7aS)-2-fluorotetrahydro-1H-pyrrolizin-7a(5H)-yl)methoxy)quinazolin-7-yl)-7-fluorobenzo[b]thiophene-3-carbonitrile] |
| > 5.30 | > 5.30 | N#Cc1c(N)sc2c(F)ccc(-c3c(Cl)cc4c(N5CCCCC6(CN(C(=O)[C@@H]7CCOC7)C6)C5)nc(OC[C@@]56CCCN5C[C@H](F)C6)nc4c3F)c12 [compound 230, 2-amino-4-(6-chloro-8-fluoro-2-(((2R,7aS)-2-fluorotetrahydro-1H-pyrrolizin-7a(5H)-yl)methoxy)-4-(2-((R)-tetrahydrofuran-3-carbonyl)-2,6-diazaspiro[3.6]decan-6-yl)quinazolin-7-yl)-7-fluorobenzo[b]thiophene-3-carbonitrile] |
| > 5.30 | > 5.30 | N#Cc1c(N)sc2c(F)ccc(-c3c(F)c4nc(OC[C@@]56CCCN5C[C@H](F)C6)nc(N5CCCCC6(CNC6)C5)c4c(=O)n3C3CC3)c12 [compound 198, 2-amino-4-(6-cyclopropyl-8-fluoro-2-(((2R,7aS)-2-fluorotetrahydro-1H-pyrrolizin-7a(5H)-yl)methoxy)-5-oxo-4-(2,6-diazaspiro[3.6]decan-6-yl)-5,6-dihydropyrido[4,3-d]pyrimidin-7-yl)-7-fluorobenzo[b]thiophene-3-carbonitrile] |
| > 5.30 | > 5.30 | CC(=O)N1CC2(CCN(c3nc(OC[C@@]45CCCN4C[C@H](F)C5)nc4c(F)c(-c5ccc(F)c6sc(N)nc56)c(Cl)cc34)CC2)C1 [compound 165, 1-(7-(7-(2-amino-7-fluorobenzo[d]thiazol-4-yl)-6-chloro-8-fluoro-2-(((2R,7aS)-2-fluorotetrahydro-1H-pyrrolizin-7a(5H)-yl)methoxy)quinazolin-4-yl)-2,7-diazaspiro[3.5]nonan-2-yl)ethan-1-one] |
| > 5.30 | > 5.30 | N#Cc1c(N)sc2c(F)ccc(-c3c(Cl)cc4c(N5CCCCC6(CN(C(=O)C78CC(C#N)(C7)C8)C6)C5)nc(OC[C@@]56CCCN5C[C@H](F)C6)nc4c3F)c12 [compound 279, 2-amino-4-(6-chloro-4-(2-(3-cyanobicyclo[1.1.1]pentane-1-carbonyl)-2,6-diazaspiro[3.6]decan-6-yl)-8-fluoro-2-(((2R,7aS)-2-fluorotetrahydro-1H-pyrrolizin-7a(5H)-yl)methoxy)quinazolin-7-yl)-7-fluorobenzo[b]thiophene-3-carbonitrile] |
| > 5.30 | > 5.30 | N#Cc1c(N)sc2c(F)ccc(-c3c(Cl)cc4c(N5CCCC6(CN(C(=O)N7CC[C@H]7C#N)C6)C5)nc(OC[C@@]56CCCN5C[C@H](F)C6)nc4c3F)c12 [compound 211, (2S)-1-(6-(7-(2-amino-3-cyano-7-fluorobenzo[b]thiophen-4-yl)-6-chloro-8-fluoro-2-(((2R,7aS)-2-fluorotetrahydro-1H-pyrrolizin-7a(5H)-yl)methoxy)quinazolin-4-yl)-2,6-diazaspiro[3.5]nonane-2-carbonyl)azetidine-2-carbonitrile] |
| > 5.30 | > 5.30 | C[C@H](Oc1nc(N2CCCC3(CN(C(=O)[C@@H]4C[C@H]4C#N)C3)C2)c2cc(Cl)c(-c3ccc(F)c4sc(N)c(C#N)c34)c(F)c2n1)[C@@H]1CCCN1C [compound 105, 2-amino-4-(6-chloro-4-(2-((1R,2R)-2-cyanocyclopropane-1-carbonyl)-2,6-diazaspiro[3.5]nonan-6-yl)-8-fluoro-2-((S)-1-((S)-1-methylpyrrolidin-2-yl)ethoxy)quinazolin-7-yl)-7-fluorobenzo[b]thiophene-3-carbonitrile] |
| > 5.30 | > 5.30 | N#Cc1c(N)sc2c(F)ccc(-c3c(Cl)cc4c(N5CCC(F)(F)CC6(CN(C(=O)[C@@H]7CC7(F)F)C6)C5)nc(OC[C@@]56CCCN5C[C@H](F)C6)nc4c3F)c12 [compound 290, 2-amino-4-(6-chloro-4-(2-((S)-2,2-difluorocyclopropane-1-carbonyl)-9,9-difluoro-2,6-diazaspiro [3.6]decan-6-yl)-8-fluoro-2-(((2R,7aS)-2-fluorotetrahydro-1H-pyrrolizin-7a(5H)-yl)methoxy)quinazolin-7-yl)-7-fluorobenzo[b]thiophene-3-carbonitrile] |
| > 5.30 | ≤ 5.30 | C#Cc1c(F)ccc2cc(O)cc(-c3ncc4c(N5CCCC6(CNC6)C5)nc(O[C@@H](C)[C@@H]5CCCN5C)nc4c3F)c12 [compound 152, 5-ethynyl-6-fluoro-4-(8-fluoro-2-((S)-1-((S)-1-methylpyrrolidin-2-yl)ethoxy)-4-(2,6-diazaspiro[3.5]nonan-6-yl)pyrido[4,3-d]pyrimidin-7-yl)naphthalen-2-ol] |
| > 5.30 | > 5.30 | Cn1cc(C(=O)N2CC3(CCCCN(c4nc(OC[C@@]56CCCN5C[C@H](F)C6)nc5c(F)c(-c6ccc(F)c7sc(N)c(C#N)c67)c(Cl)cc45)C3)C2)c(C(F)F)n1 [compound 220, 2-amino-4-(6-chloro-4-(2-(3-(difluoromethyl)-1-methyl-1H-pyrazole-4-carbonyl)-2,6-diazaspiro[3.6]decan-6-yl)-8-fluoro-2-(((2R,7aS)-2-fluorotetrahydro-1H-pyrrolizin-7a(5H)-yl)methoxy)quinazolin-7-yl)-7-fluorobenzo[b]thiophene-3-carbonitrile] |
| > 5.30 | > 5.30 | N#Cc1c(N)sc2c(F)ccc(-c3c(Cl)cc4c(N5CCCCC6(CN(C(=O)C7CCC7F)C6)C5)nc(OC[C@@]56CCCN5C[C@H](F)C6)nc4c3F)c12 (stereo partly drawn) [compound 160, 2-amino-4-(6-chloro-8-fluoro-4-(2-(2-fluorocyclobutane-1-carbonyl)-2,6-diazaspiro[3.6]decan-6-yl)-2-(((2R,7aS)-2-fluorotetrahydro-1H-pyrrolizin-7a(5H)-yl)methoxy)quinazolin-7-yl)-7-fluorobenzo[b]thiophene-3-carbonitrile] |
| > 5.30 | > 5.30 | N#Cc1c(N)sc2c(F)ccc(-c3c(Cl)cc4c(N5CCCCC6(CN(C(=O)NC7(C(F)(F)F)CC7)C6)C5)nc(OC[C@@]56CCCN5C[C@H](F)C6)nc4c3F)c12 [compound 289, 6-(7-(2-amino-3-cyano-7-fluorobenzo[b]thiophen-4-yl)-6-chloro-8-fluoro-2-(((2R,7aS)-2-fluorotetrahydro-1H-pyrrolizin-7a(5H)-yl)methoxy)quinazolin-4-yl)-N-(1-(trifluoromethyl)cyclopropyl)-2,6-diazaspiro[3.6]decane-2-carboxamide] |
| > 5.30 | > 5.30 | CN1CCC[C@H]1COc1nc(N2CCCC3(CNC3)C2)c2cc(Cl)c(-c3cccc4sc(N)nc34)c(F)c2n1 [compound 172, 4-(6-chloro-8-fluoro-2-(((S)-1-methylpyrrolidin-2-yl)methoxy)-4-(2,6-diazaspiro[3.5]nonan-6-yl)quinazolin-7-yl)benzo[d]thiazol-2-amine] |
| > 5.30 | > 5.30 | CC(F)(F)C(=O)N1CC2(CCCCN(c3nc(OC[C@@]45CCCN4C[C@H](F)C5)nc4c(F)c(-c5ccc(F)c6sc(N)c(C#N)c56)c(Cl)cc34)C2)C1 [compound 213, 2-amino-4-(6-chloro-4-(2-(2,2-difluoropropanoyl)-2,6-diazaspiro[3.6]decan-6-yl)-8-fluoro-2-(((2R,7aS)-2-fluorotetrahydro-1H-pyrrolizin-7a(5H)-yl)methoxy)quinazolin-7-yl)-7-fluorobenzo[b]thiophene-3-carbonitrile] |
| > 5.30 | > 5.30 | N#Cc1c(N)sc2c(F)ccc(-c3c(Cl)cc4c(N5CCCC6(CN(C=O)C6)C5)nc(OC[C@@]56CCCN5C[C@H](F)C6)nc4c3F)c12 [compound 173, 2-amino-4-(6-chloro-8-fluoro-2-(((2R,7aS)-2-fluorotetrahydro-1H-pyrrolizin-7a(5H)-yl)methoxy)-4-(2-formyl-2,6-diazaspiro[3.5]nonan-6-yl)quinazolin-7-yl)-7-fluorobenzo[b]thiophene-3-carbonitrile] |
| > 5.30 | > 5.30 | Nc1nc2c(-c3c(Cl)cc4c(N5CCOC6(CCNCC6)C5)nc(OCC56CCCN5C[C@H](F)C6)nc4c3F)ccc(F)c2s1 (stereo partly drawn) [compound 129, 4-(6-chloro-8-fluoro-2-(((2R)-2-fluorotetrahydro-1H-pyrrolizin-7a(5H)-yl)methoxy)-4-(1-oxa-4,9-diazaspiro[5.5]undecan-4-yl)quinazolin-7-yl)-7-fluorobenzo[d]thiazol-2-amine] |
